Reference: patent US20210369739A1, “COMBINATION THERAPY OF ACYLTHIOUREA COMPOUND AND ABIRATERONE” (TAIHO PHARMACEUTICAL CO., LTD., priority 2018, published 2021)

Legend:
[1] = tested on: bone metastasis of castration-resistant prostate cancer; assay: Combinational administration test: bone scintigraphy, Bone Scan Index (BSI); format: in vivo, human; details: with 1000 mg abiraterone acetate once a day
Protocol: (§1) A methanesulfonate salt of compound I and abiraterone acetate were administered to patients of castration-resistant prostate cancer with bone metastasis as subjects, and the efficacy and side effects were evaluated. A schedule of administering the methanesulfonate salt of compound I in any of three doses in terms of the free form (200, 300, or 400 mg/body/day) to patients who were receiving secondary endocrine therapy before docetaxel treatment as subjects once a day for 5 days and taking a drug holiday of the compound I only for 2 days was repeated. During this period, 1000 mg of abiraterone acetate was administered to every dosage groups every day once a day, and six subjects were examined in each dosage group. […] In the side effects that determine this discontinuation of enrollment and evaluation, etc., abnormal clinical examination values, such as an increase in alanine aminotransferase (ALT), an increase in aspartate aminotransferase (AST), and an increase in blood creatine kinase (CK), are not included. […] Accordingly, since the number of cases for evaluation of each dosage group is small, i.e., 6 cases, from the viewpoint of the efficacy, side effects, and administration continuity, 6 cases at 300 mg/body/day were additionally evaluated.
Regarding the efficacy, bone scintigraphy to be used for detecting bone metastasis was implemented, and evaluation was performed based on Bone Scan Index (BSI) using analytical data by BONE NAVI and criteria of Response Evaluation Criteria in Solid Tumors (RECIST) guideline Version 1.1 or Prostate Cancer Clinical Trials Working Group 3 (PCWG3). […] The ANN value indicates the degree of confidence of metastasis on a scale from 0 to 1, and an ANN value exceeding 0.5 is assessed to have a risk of bone metastasis. In addition, in FIG. 1, the best value among BSI measured during the period of administration of the compound I is shown as Best response based on the bone metastasis on the day of starting the administration in each dosage group.

[2] = Combinational administration test: seriousness of side effects (CTCAE Ver. 4.03); format: in vivo, human; details: every dosage group; in combination with abiraterone acetate
Protocol: as §1, with “additionally evaluated. […]” for “additionally evaluated.”

Structure (SMILES): CNC(=O)c1cc2c(Oc3ccc(NC(=S)NC(=O)Cc4ccccc4)cc3F)ccnc2cc1OC [compound I, 4-(2-fluoro-4-(3-(2-phenylacetyl)thioureido)phenoxy)-7-methoxy-N-methylquinoline-6-carboxamide]
- suppression of bone metastasis observed (BSI) ([1]; 200 mg/body/day as free form, once a day for 5 days then 2-day holiday, CRPC patients with bone metastasis): two of six
- BSI value became 0 ([1]; 300 mg/body/day, among the 10 cases with suppression): three
- suppression of bone metastasis observed (BSI) ([1]; 400 mg/body/day as free form, bone metastasis not measurable in one of six cases): five of the remaining five
- side effects [2]: acceptable
